The text below walks through data of PMC3419744, “Anti-Tumor Activity of a Novel HS-Mimetic-Vascular Endothelial Growth Factor Binding Small Molecule” (PLoS ONE, 2012).

Each structure is given as a SMILES string. “Also recorded” adds a separate entry of the source. Where two headings read alike, the source gives them in different places. Where only a bound is given, the exact number is not on record here.

One experiment has as its system LM8 cells. As to the kind of experiment: Proliferation assay (TetraColor One), LM8 cells. The format is cell-based, murine. To be noted: for IC50: 48 h, NS = not significant, read-out: IC50, inhibition of proliferation, LM8. The method, then: (§1) Two tumor cell lines such as LM8, LM8G7, and UV♀2 endothelial were used to evaluate the anti-proliferative activity of the compounds. UV♀2 (1×10^4 cells) or LM8 or LM8G7 cells (5×10^3 cells) were seeded in 96-well plate and incubated overnight at 37°C. […] 5 µL of TetraColor One reagent was added and incubated for an additional 2–4 h and the absorbance at 450 nm (Bio-Rad) was measured. […] The results were expressed as a percentage of viable cells relative to cells treated with DMSO. The viability of the cells was expressed in percentage terms and IC50 value was calculated.

The subject of a further experiment is LM8G7 cells. The experiment is described as follows: Proliferation assay (TetraColor One), LM8G7 cells. To be noted: for IC50: NS = not significant, read-out: IC50, inhibition of proliferation, LM8G7. In kind it is cell-based, murine. The method, then:
as §1

The subject of the next experiment is UV♀2 cells. The experiment is described as follows: Proliferation assay (TetraColor One), UV♀2 endothelial cells. The format is cell-based, mouse. To be noted: for IC50: 48 h, serum-containing conditions (10%FBS), NS = not significant, read-out: IC50, inhibition of proliferation, UV♀2. The protocol:
as §1

The target in the next experiment is T1, VEGF (Homo sapiens, UniProt P15692).
T1 construct: purchased Wako Pure Chemicals Co. (Osaka, Japan)
T1 sequence (P15692 1-191 isoform P15692-4): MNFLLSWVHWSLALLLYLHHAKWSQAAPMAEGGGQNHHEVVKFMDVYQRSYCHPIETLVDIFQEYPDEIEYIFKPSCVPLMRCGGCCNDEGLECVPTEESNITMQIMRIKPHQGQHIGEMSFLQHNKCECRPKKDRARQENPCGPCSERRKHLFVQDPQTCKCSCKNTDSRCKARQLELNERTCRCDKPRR
The experiment is described as follows: SPR imaging of immobilized small molecules binding to VEGF. To be noted: compounds immobilized on chip, growth factor 50 µg/mL. The protocol: (§2) The chip was washed successively with ethanol, water, and ethanol. Then the chip is air dried to obtain the photo reactive chip. The compounds 1–9 were spotted on the chip (10 mM), washed, and dried in vacuo, and then irradiated at 365 nm under a UV transmission filter (Sigma-Koki, Japan). The compounds were immobilized onto the photo-reactive linker that bound to the gold-surface of the glass chip was set into an SPR imaging instrument (TOYOBO), and each growth factor (50 µg/mL) was injected onto the array surface at 0.1 ml/min and incubated for 10 min. The SPR image and signal data were collected with an SPR analysis program (TOYOBO). The SPR difference image was constructed by using the Scion Image program (Scion, MD).

For experiment [1], the target named is T2, VEGF165 binding to immobilised heparin (Homo sapiens, UniProt P15692).
T2 construct: purchased Wako Pure Chemicals Co. (Osaka, Japan)
T2 sequence (P15692 1-191 isoform P15692-4): T1 sequence (P15692 1-191 isoform P15692-4)
The experiment is described as follows: BIAcore analysis of VEGF165 binding to immobilised heparin. To be noted: VEGF165 250 nM. The protocol:
The heparin-immobilized sensor chip was prepared as reported earlier. […] The flow rate was kept at a moderate speed ([…]) according to the manufacturer's recommendations.
On the technique in general: In SPR one partner is held on a chip, and binding of the other changes the refractive index at the surface.

The next experiment concerns the target T3, FGF-2 (Homo sapiens, UniProt P09038).
T3 construct: purchased Wako Pure Chemicals Co. (Osaka, Japan)
As to the kind of experiment: SPR imaging of immobilized small molecules binding to FGF-2. To be noted: compounds immobilized on chip, growth factor 50 µg/mL. The method, then:
as §2

The mark [2] stands for this setting: Mus musculus, LM8G7, 48 h, 48 h.

T3 sequence (P09038 134-288): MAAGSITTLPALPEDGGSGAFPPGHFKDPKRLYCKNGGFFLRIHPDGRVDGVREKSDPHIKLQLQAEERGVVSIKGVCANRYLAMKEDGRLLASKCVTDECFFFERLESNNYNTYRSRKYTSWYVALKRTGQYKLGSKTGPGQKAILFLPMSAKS

On to `N.N.[Cl][Pt][Cl]` [Cisplatin, reference compound], for which the results for the IC50 with LM8 cells, in the experiment with LM8G7 cells (48 h) and in the experiment on UV♀2 cells were 30 ± 24 µM, 15 ± 0.6 µM and 12 ± 0.4 µM, respectively.
As for `Cc1ccc(C(=O)Nc2ccc(S(=O)(=O)O)c3cc(S(=O)(=O)O)cc(S(=O)(=O)O)c23)cc1NC(=O)c1cccc(NC(=O)Nc2cccc(C(=O)Nc3cc(C(=O)Nc4ccc(S(=O)(=O)O)c5cc(S(=O)(=O)O)cc(S(=O)(=O)O)c45)ccc3C)c2)c1` [Suramin, reference compound], the “inhibition of proliferation of LM8 cells (in words)” value in the experiment with LM8 cells is “comparable with the inhibitory activity of compound 8”. For the same compound, the IC50 was found to be 12 ± 2.8 µM with LM8 cells (Mus musculus); 14 ± 24 µM in the experiment on LM8G7 cells (Mus musculus, LM8G7, 48 h); 34 ± 1.4 µM in the experiment with UV♀2 cells (Mus musculus, Endothelial cell). In addition, the “inhibition of proliferation of LM8G7 cells (in words)” value in the experiment with LM8G7 cells is listed as “comparable with the inhibitory activity of compound 8”.
For the compound `Cc1nnc(S)n1N=Cc1c(F)cccc1F` [compound 5, 4-[(2,6-Difluoro-benzylidene)-amino]-5-methyl-4H-[1,2,4]triazole-3-thiol], the IC50 with LM8 cells (Mus musculus) is 36 ± 6.4 µM; in the experiment with LM8G7 cells (setting [2]), more than 100 µM; in the experiment with UV♀2 cells (Mus musculus, Endothelial cell), 45 ± 2.1 µM.
Take `CCc1nnc(S)n1N=Cc1c(F)cccc1F` [compound 6, 4-[(2,6-Difluoro-benzylidene)-amino]-5-ethyl-4H-[1,2,4]triazole-3-thiol]: at VEGF, the “binding to VEGF (SPR signal)” value is listed as “significantly; also recorded: weak binding”. In addition, the IC50 worked out at 64 ± 6.7 µM in the experiment with LM8 cells (Mus musculus); 23 ± 0.5 µM with LM8G7 cells (setting [2]); 14 ± 4.6 µM with UV♀2 cells (Mus musculus, Endothelial cell). Further, in the experiment on UV♀2 cells, the “effect on proliferation of UV♀2 cells (in words)” value is “moderately inhibited”.
For the compound `Fc1cccc(F)c1C=Nn1c(S)nnc1-c1ccccc1` [compound 7, 4-[(2,6-difluoro-benzylidene)-amino]-5-phenyl-4H-[1,2,4]triazole-3-thiol], the “binding to VEGF (SPR signal)” value at VEGF is listed as “does not bind VEGF”. Also, in experiment [1], the “inhibition of binding of VEGF165 to immobilised heparin” value is listed as “failed to inhibit the binding of VEGF to heparin”. In addition, the IC50 in the experiment with LM8 cells (Mus musculus) was more than 100 µM; with LM8G7 cells (setting [2]) it was more than 100 µM; in the experiment on UV♀2 cells (Mus musculus, Endothelial cell) it was more than 100 µM.
`CCCCc1nc(Cl)c(C=O)n1Cc1ccc([N+](=O)[O-])cc1` [compound 8, 2-butyl-5-chloro-3-(4-nitro-benzyl)-3H-imidazole-4-carbaldehyde]: on VEGF, the “binding to VEGF (SPR signal)” value is reported as “very strongly; also recorded: strongly”. Besides, the “binding to FGF-2 (SPR signal)” value at FGF-2 is reported as “significantly, although with weaker affinity compared to its VEGF binding; also recorded: weakly”. Moreover, in experiment [1], the “inhibition of binding of VEGF165 to immobilised heparin” value is recorded as “inhibited the binding of VEGF165 to the immobilised heparin”.
As to `CCCCc1nc(Cl)c(C=O)n1Cc1cc2c(cc1C)OCO2` [compound 9], the IC50 with LM8 cells is 46 ± 6.7 µM; with LM8G7 cells (48 h), more than 100 µM; in the experiment with UV♀2 cells, more than 100 µM.
